The subject of data set [1] is Candida albicans ATCC 10231. The experiment in a line: Antimicrobial activity, microdilution MIC, C. albicans. The format is cell-based. As to conditions: for MIC: Candida albicans, ATCC10231, 24 h. Here is the method:
(§1) The antimicrobial potential of the tested agents was evaluated against two reference strains of bacteria: Staphylococcus aureus ATCC 25923 and Escherichia coli K12, two reference strains of pathogenic yeasts, Candida albicans ATCC10231 and Candida glabrata DSMZ11226, as well as 20 strains of clinical isolates of S. aureus collected from patients with skin and soft tissue infections (n = 8) and strains derived from subclinical bovine mastitis milk samples (n = 12). Four of these strains, two isolated from human infections and two isolated from bovine mastitis, were classified as MRSA (Methicillin-resistant Staphylococcus aureus). All of them were mecA positive and their methicillin resistance was confirmed with the disc diffusion assay. The remaining 16 strains were MSSA (Methicillin-sensitive Staphylococcus aureus). The assays were performed using a serial, two-fold dilution method in 96-well microtiter plates under conditions recommended by the Clinical and Laboratory Standards Institute (CLSI, Pittsburgh, PA, USA). The aim of this procedure was the determination of the MIC parameter (Minimum Inhibitory Concentration)—the minimum concentration of a tested agent capable to inhibit the growth of a specified strain of microorganism. The agents were solubilized in deionized, sterile water to a final concentration of […]. Subsequently, solutions were mixed (1:1 (v/v)) with 2 × concentrated liquid medium, Mueller-Hinton Broth 2—cation adjusted (MHB2) for evaluation of antibacterial activity and RPMI in the case of evaluation of the antifungal activity. […] Subsequently, the solutions were mixed with MHB2 or RPMI medium to get the final concentration of 8.192 mg/mL (8192 µg/mL). In the next step, the serial, two-fold dilutions of the tested agents (over the range of concentrations from 8192 to 8 µg/mL for reference strains of bacteria and yeasts and from 512 to 1.0 µg/mL for clinical isolates of S. aureus) were prepared in 96-well microtitration plates in the final volume of 100 μL of the appropriate medium.
(§2) The pure cultures of yeast strains were grown on the Sabouraud Dextrose Agar (SDA) for 18–24 h at 37 °C. Suspensions of the microorganisms were prepared by taking one loop of pure culture into sterile water and adjusting optical density to 0.1 at 660 nm and further 50-fold dilution in RPMI 1640 medium resulting in cells concentration of approximate 2 × 10^4 CFU/mL. One hundred μL of that suspension was inoculated to the wells of the microtitration plate containing appropriate dilutions of the agents. The positive growth control of each strain (both bacteria and yeasts) was performed in the wells without the tested substances. The negative control containing only the media was included in each assay. Microtiter plates were incubated at 37 °C for 24 h. Following the incubation period, determination of the MIC values of the tested agents was carried out by measuring the absorbance at 531 nm using a Victor^3 microplate reader (Perkin Elmer, Inc., Waltham, MA, USA). The lowest concentration of the agent causing inhibition of growth equal to or higher than 90% (MIC90) of growth control was taken as the MIC value. Each test was repeated three times.
(Broth dilution looks for growth in wells or tubes with falling amounts of substance.)

The subject of data set [2] is Candida glabrata DSMZ 11226. The experiment in a line: Antimicrobial activity, microdilution MIC, C. glabrata. The format is cell-based. As to conditions: for MIC: Nakaseomyces glabratus, DSMZ11226, 24 h. Here is the method: as §1, §2
The subject of data set [3] is Staphylococcus aureus ATCC 25923. The data set is described as follows: Antimicrobial activity, microdilution MIC, S. aureus reference strain. As to conditions: for MIC: Staphylococcus aureus, ATCC25923, 24 h. The data set is classed as cell-based. Here is the method:
as §1
(§3) The pure bacterial cultures of (both the reference and clinical strains) were grown on the Mueller-Hinton Agar (MHA) for 18–24 h at 37 °C. A small amount of the biomass of the culture of each strain of microorganisms was suspended in the sterile PBS (phosphate buffered saline, pH 7.4 at 25 °C, purchased from Sigma) solution to get an optical density OD600 = 0.13 (equal to the cells concentration approximately 1 × 10^8 CFU/mL). The obtained suspensions of the cells were next diluted 1:100 (v/v) in the MHB2 medium. One hundred µL of the cells’ suspension was finally loaded into the wells of plates prepared in advance, which contained 100 µL of two-fold dilutions of the tested agents (the final concentration of the bacterial cells in all wells was approximately 5 × 10^5 CFU/mL).
as §2, with “times. […]” for “times.”

Another data set concerns Escherichia coli K12. The data set is described as follows: Antimicrobial activity, microdilution MIC, E. coli. The format is cell-based. As to conditions: for MIC: Escherichia coli, K12, 24 h. Here is the method: as §1, §3
as §2, with “times. […]” for “times.”

For data set [4], the system named is human keratinocytes (HaCaT cell line). The data set is described as follows: Cytotoxicity, MTT assay. The data set is classed as cell-based. As to conditions: Homo sapiens, HaCaT, read-out: HaCaT IC50. Here is the method: To assess the cytotoxicity of QAS (IC50), the MTT assay on 96-well polystyrene plates was performed for human keratinocytes (HaCaT, Elabscience Biotechnology Inc., Houston, Texas, USA). The assay utilizes colorimetric determination of the cell metabolic activity and the color intensity reflects the number of live cells that can be measured spectrophotometrically. The cell line was cultured in a Dulbecco’s modified Eagle Medium (Invitrogen) supplemented with 10% fetal bovine serum (Sigma Aldrich) (v/v), 100 units/mL of penicillin, 100 μg/mL of streptomycin, and 2 mM L-glutamine and was stored at 37 °C in a humidified 5% CO2 incubator. Briefly, a day after plating of 500 cells per well, a series of concentrations (0.5–200 μg/mL) of the test compounds was applied. DMSO was added to the control cells at a final concentration of 1.0% (v/v), which was related to the maximal concentration of the solvent compounds used in the experiment. After 24 h of incubation with the QAS at 37 °C (humidified 5% CO2 incubator), a medium containing 1 mg/mL of MTT (3-(4,5-dimethylthiazol-2-yl)-2,5-diphenyltetrazolium bromide) was added to the wells up to a final concentration of 0.5 mg/mL. Subsequently, the plates were incubated at 37 °C for 4 h. Then, the medium was removed by suction, and the formazan product was solubilized with DMSO. The background absorbance at 630 nm was subtracted from that at 570 nm for each well (Epoch, BioTek Instruments, Winooski, VT, USA). Six replicates were conducted for each concentration. All experiments were repeated at least twice and the resulting IC50 values were calculated with GraFit 7 software (v. 7.0, Erithacus, Berkley, CA, USA).
(Formazan colour is commonly taken as a measure of viable cells.)

Data set [5] has as its system Salmonella typhimurium TA98 strain. As to conditions: TA98, no metabolic activation.
Procedure: A Salmonella mutagenicity test was performed with Salmonella typhimurium TA98 strain (Xenometrics AG, Allschwil, Switzerland) without metabolic activation, following the procedure by Mortelmans and Zeiger [52], with modifications reported Golunski et al. [53] […] Subsequently, the mixture was centrifuged, bacterial pellet washed with 0.75% NaCl and resuspended in 300 µL of 0.75% NaCl solution containing 0.1 µmol each of histidine and biotin, and it was then spread on a glucose minimal (GM) plate. […] All experiments were performed in triplicate. The anticancer drug doxorubicin at 90 ng/plate with known mutagenic effect towards S. typhimurium TA98 was used as a positive control.
[6] abbreviates: MIC90, 24 h, RPMI, read-out: MIC C. albicans ATCC 10231.
Setting [7] is: MIC90, 24 h, RPMI, read-out: MIC C. glabrata DSMZ 11226.
Where [8] appears, read: MIC90, 24 h, MHB2, read-out: MIC S. aureus ATCC 25923.
Setting [9] is: MIC90, 24 h, MHB2, read-out: MIC E. coli K12.

Like-named read-outs stand apart in the source and are kept apart here.

The MIC is the least concentration at which growth counts as inhibited. A word on the IC50: it is the midpoint of a concentration-inhibition curve.

In the case of `Cn1cc[n+](C2COC3C2OCC3[n+]2ccn(C)c2)c1` [QAS 6, N,N’-(1,4:3,6-Dianhydro-2,5-dideoxy-L-iditol-2,5-diyl)-bis(N-methylimidazolium) Ditrifluoromethanesulfonate], the MIC (in data set [1] (setting [6]); in data set [2] (setting [7]); in data set [3] (setting [8]); in the data set with Escherichia coli K12 (setting [9])) was more than 4000 µg/mL throughout. Further, in data set [1] (MIC90, 24 h, RPMI), the “MIC C. albicans ATCC 10231” value is more than 4096 µg/mL. Moreover, the “MIC C. glabrata DSMZ 11226” value in data set [2] (MIC90, 24 h, RPMI) was more than 4096 µg/mL. In data set [3] (MIC90, 24 h, MHB2), the “MIC S. aureus ATCC 25923” value was more than 4096 µg/mL. In addition, the “MIC E. coli K12” value against Escherichia coli K12 (MIC90, 24 h, MHB2) was more than 4096 µg/mL. The concentration for half-maximal inhibition (IC50) in data set [4] (MTT, 24 h incubation) is more than 100 µg/mL. Further, the “Number of Revertants” value worked out at 13.3 ± 3.2 in data set [5] (concentration 4 µg/plate); 10.0 ± 2.0 in data set [5] (concentration 20 µg/plate); 9.0 ± 3.6 in data set [5] (concentration 100 µg/plate); 16.0 ± 6.2 in data set [5] (concentration 500 µg/plate); 13.7 ± 2.9 in data set [5] (concentration 2000 µg/plate).
On to `c1cc[n+](C2COC3C2OCC3[n+]2ccccc2)cc1` (stereo not shown) [QAS 3], for which the MIC (in data set [1] (setting [6]); in data set [2] (setting [7]); in data set [3] (setting [8]); in the data set on Escherichia coli K12 (setting [9])) was more than 4000 µg/mL throughout. The “MIC C. albicans ATCC 10231” value in data set [1] (MIC90, 24 h, RPMI) was more than 4096 µg/mL. In addition, in data set [2] (MIC90, 24 h, RPMI), the “MIC C. glabrata DSMZ 11226” value is more than 4096 µg/mL. Moreover, the “MIC S. aureus ATCC 25923” value in data set [3] (MIC90, 24 h, MHB2) is more than 4096 µg/mL. For the same compound, the “MIC E. coli K12” value in the data set on Escherichia coli K12 (MIC90, 24 h, MHB2) was more than 4096 µg/mL. Further, the IC50 in data set [4] (MTT, 24 h incubation) was more than 100 µg/mL. In addition, the “Number of Revertants” value in data set [5] (concentration 4 µg/plate) stood at 7.3 ± 2.5; in data set [5] (concentration 20 µg/plate) it was 11.0 ± 1.0; in data set [5] (concentration 100 µg/plate) it was 10.6 ± 2.1; in data set [5] (concentration 500 µg/plate), 8.7 ± 1.5; in data set [5] (concentration 2000 µg/plate), 7.3 ± 2.5.
For the compound `CN(C)c1cc[n+](C2COC3C2OCC3[n+]2ccc(N(C)C)cc2)cc1` (stereo not shown) [QAS 4], the MIC (in data set [1] (setting [6]); in data set [2] (setting [7]); in data set [3] (setting [8]); in the data set on Escherichia coli K12 (setting [9])) was more than 4000 µg/mL throughout. Besides, in data set [1] (MIC90, 24 h, RPMI), the “MIC C. albicans ATCC 10231” value was more than 4096 µg/mL. The “MIC C. glabrata DSMZ 11226” value in data set [2] (MIC90, 24 h, RPMI) was more than 4096 µg/mL. In data set [3] (MIC90, 24 h, MHB2), the “MIC S. aureus ATCC 25923” value was more than 4096 µg/mL. In addition, the “MIC E. coli K12” value in the data set on Escherichia coli K12 (MIC90, 24 h, MHB2) is more than 4096 µg/mL. For the same compound, in data set [4] (MTT, 24 h incubation), the IC50 was more than 100 µg/mL. Moreover, the “Number of Revertants” value in data set [5] (concentration 4 µg/plate) amounted to 8.3 ± 0.6; in data set [5] (concentration 20 µg/plate), 9.7 ± 1.5; in data set [5] (concentration 100 µg/plate), 10.0 ± 2.6; in data set [5] (concentration 500 µg/plate) it was 7.0 ± 3.5; in data set [5] (concentration 2000 µg/plate), 6.0 ± 2.6.
`C[N+](C)(C)C1COC2C1OCC2[N+](C)(C)C` (stereo not shown) [QAS 7]: the minimal inhibitory concentration (MIC) in data set [1] (read-out: MIC C. albicans ATCC 10231, MIC90, 24 h, RPMI) was more than 4000 µg/mL; in data set [2] (read-out: MIC C. glabrata DSMZ 11226, MIC90, 24 h, RPMI), more than 4000 µg/mL; in data set [3] (read-out: MIC S. aureus ATCC 25923, MIC90, 24 h, MHB2), more than 4000 µg/mL; in the data set with Escherichia coli K12 (read-out: MIC E. coli K12, MIC90, 24 h, MHB2), more than 4000 µg/mL. Besides, the “MIC C. albicans ATCC 10231” value in data set [1] (MIC90, 24 h, RPMI) is more than 4096 µg/mL. Besides, the “MIC C. glabrata DSMZ 11226” value in data set [2] (MIC90, 24 h, RPMI) is more than 4096 µg/mL. Further, the “MIC S. aureus ATCC 25923” value in data set [3] (MIC90, 24 h, MHB2) was more than 4096 µg/mL. The “MIC E. coli K12” value against Escherichia coli K12 (MIC90, 24 h, MHB2) is more than 4096 µg/mL. For the same compound, the IC50 in data set [4] (24 h) was more than 100 µg/mL. In addition, the “Number of Revertants” value in data set [5] (concentration 4 µg/plate) is recorded as 11.0 ± 3.0; in data set [5] (concentration 20 µg/plate) it was 10.7 ± 4.9; in data set [5] (concentration 100 µg/plate) it was 11.3 ± 3.5; in data set [5] (concentration 500 µg/plate) it was 13.7 ± 1.5; in data set [5] (concentration 2000 µg/plate), 11.3 ± 3.2.
For the compound `NC(=O)c1ccc[n+](C2COC3C2OCC3[n+]2cccc(C(N)=O)c2)c1` [QAS 5, N,N’-(1,4:3,6-Dianhydro-2,5-dideoxy-L-iditol-2,5-diyl)-bis[(3-carboxamide)pyridinium] Ditrifluoromethanesulfonate], the MIC (in data set [1] (setting [6]); in data set [2] (setting [7]); in data set [3] (setting [8]); with Escherichia coli K12 (setting [9])) was more than 4000 µg/mL in each case. In data set [1] (MIC90, 24 h, RPMI), the “MIC C. albicans ATCC 10231” value was more than 4096 µg/mL. The “MIC C. glabrata DSMZ 11226” value in data set [2] (MIC90, 24 h, RPMI) is more than 4096 µg/mL. Besides, the “MIC S. aureus ATCC 25923” value in data set [3] (MIC90, 24 h, MHB2) was more than 4096 µg/mL. Also, the “MIC E. coli K12” value with Escherichia coli K12 (MIC90, 24 h, MHB2) was more than 4096 µg/mL. Besides, in data set [4] (MTT, 24 h incubation), the IC50 was more than 100 µg/mL. The “Number of Revertants” value in data set [5] (concentration 4 µg/plate) worked out at 14.3 ± 5.5; in data set [5] (concentration 20 µg/plate), 8.0 ± 3.5; in data set [5] (concentration 100 µg/plate) it was 12.0 ± 2.0; in data set [5] (concentration 500 µg/plate) it was 12.7 ± 2.5; in data set [5] (concentration 2000 µg/plate), 11.0 ± 1.7.
